{"source": "patent US4997825A", "about": "“Synergistic treatment method” (Eli Lilly and Company, priority 1989, dated 1991)", "key": {"Plasma GH [1]": {"tested_on": "Plasma GH", "assay": "Plasma growth hormone in wethers during 5-day continuous infusion of hGRF (acid form) through a jugular cannula, with or without estradiol implant; radioimmunological analysis", "format": "in vivo", "conditions": "no hGRF (Control), estradiol implant about 25 mcg/day", "protocol": "Wethers weighing about 32 kg were confined in metabolism crates for about 7 days before the experiment began. […] Two days before the start of the treatment schedule, a Silastic (Dow Corning Corporation) cannula was inserted in each jugular vein of each wether. Four animals, two implanted and two unimplanted, were assigned to three GRF treatments, 1.5 mg/day, 0.33 mg/day and control. The GRF which was used was hGRF in the acid form, synthesized by solid phase synthetic methodology according to the general procedure of Merrifield et al., Biochemistry 21, 5020 (1982).\nGRF was infused through one of the cannulae continuously for 5 days to the treated wethers, using a Harvard peristaltic pump. The GRF was diluted in physiological saline to a concentration such that the actual delivery rate was 0.5 ml of infusate per minute.\nSix blood samples were collected from each wether each day, beginning 1 day before the start of infusion and continuing 1 day after the end of it. Two samples were obtained within 1 hour just before the beginning of each 1-hour ad libitum meal, and 1 sample was taken at the end of each meal. The animals received two 1-hour meals daily at 12 hour intervals. Additional blood samples were taken 1 hour before, just before, 10 minutes after and 60 minutes after the start of infusion. At the end of the infusion period, additional blood samples were obtained at 10, 20, 30 and 60 minutes after the termination of infusion.\nThe plasma was separated from the other components of the blood samples, and was analyzed for growth hormone by a standard radioimmunological procedure.\nThe table below reports the growth hormone levels in the animals, reported as means of all of the analyses in the stated time period. The data from animals which were implanted with estradiol are indicated by \"+\" in the column headed Estradiol."}, "Plasma GH [2]": {"tested_on": "Plasma GH", "assay": "Plasma growth hormone in lambs during subcutaneous infusion of hGRF analog (serine at position 27), with or without estradiol implant", "format": "in vivo", "conditions": "no hGRF (Control)", "protocol": "This experiment was carried out substantially according to the scheme of Example 1. In this test, the GRF was a hGRF analog having serine in place of methionine at position 27; the GRF was prepared by recombinant methods. Four rates of hGRF were used, 0.75, 1.5 and 3.0 mg/day, and controls.\nThe hGRF was infused through a subcutaneous Silastic cannula using an IVAC model 630 pump (IVAC Corporation, San Diego). The hGRF was diluted in physiological saline to provide concentrations such that 48 ml/day of each infusate could be supplied to each animal."}, "growth hormone [3]": {"tested_on": "growth hormone", "conditions": "intravenously, normal men; cited from earlier work"}, "[4]": {"tested_on": "growth hormone concentration", "conditions": "large doses, normal men, measured fasting; cited from earlier work"}, "growth hormone [5]": {"tested_on": "growth hormone", "conditions": "steers, finishing diet with 10 mg/head/day; cited from earlier work"}, "growth hormone [6]": {"tested_on": "growth hormone", "conditions": "rats, Rhesus monkeys, rabbits, sheep, cattle and chickens, as well as humans; cited from earlier work"}}, "note": "Read-outs that look alike come from different tables or passages of the source. No end group written: not given here.", "data": [{"compound": "C[C@]12CC[C@@H]3c4ccc(O)cc4CC[C@H]3[C@@H]1CC[C@@H]2O", "note": "[Estradiol, estradiol]", "values": [{"measurement": "Plasma GH, Infusion Period Day 1", "setting": "Plasma GH [1]", "value": 3.3, "unit": "ng/mL"}, {"measurement": "Plasma GH, Infusion Period Day 2", "setting": "Plasma GH [1]", "value": 4.3, "unit": "ng/mL"}, {"measurement": "Plasma GH, Infusion Period Day 3", "setting": "Plasma GH [1]", "value": 2.9, "unit": "ng/mL"}, {"measurement": "Plasma GH, Infusion Period Day 4", "setting": "Plasma GH [1]", "value": 5.2, "unit": "ng/mL"}, {"measurement": "Plasma GH, Infusion Period Day 5", "setting": "Plasma GH [1]", "value": 4.2, "unit": "ng/mL"}, {"measurement": "Plasma GH, Posttreatment", "setting": "Plasma GH [1]; day after infusion", "value": 2.4, "unit": "ng/mL"}, {"measurement": "Plasma GH, Pretreatment", "setting": "Plasma GH [1]; mean of analyses, day before infusion", "value": 2.8, "unit": "ng/mL"}, {"measurement": "Plasma GH, Infusion Period Day 1", "setting": "Plasma GH [2]", "value": 5.9, "unit": "ng/mL"}, {"measurement": "Plasma GH, Infusion Period Day 2", "setting": "Plasma GH [2]", "value": 10.0, "unit": "ng/mL"}, {"measurement": "Plasma GH, Infusion Period Day 3", "setting": "Plasma GH [2]", "value": 6.2, "unit": "ng/mL"}, {"measurement": "Plasma GH, Infusion Period Day 5", "setting": "Plasma GH [2]", "value": 8.8, "unit": "ng/mL"}, {"measurement": "Plasma GH, Posttreatment", "setting": "Plasma GH [2]", "value": 8.7, "unit": "ng/mL"}, {"measurement": "Plasma GH, Pretreatment", "setting": "Plasma GH [2]", "value": 11.6, "unit": "ng/mL"}]}, {"compound": "C#C[C@]1(O)CC[C@H]2[C@@H]3CCc4cc(O)ccc4[C@H]3CC[C@@]21C", "note": "[Ethinyl estradiol]", "values": [{"measurement": "growth hormone", "setting": "growth hormone [3]", "value": "significant increase in growth hormone in 5 of 6 patients"}]}, {"compound": "CC/C(=C(/CC)c1ccc(O)cc1)c1ccc(O)cc1", "note": "[diethylstilbestrol]", "values": [{"measurement": "growth hormone concentration", "setting": "[4]", "value": "increased growth hormone concentration"}]}, {"compound": "CC/C(=C(/CC)c1ccc(O)cc1)c1ccc(O)cc1", "note": "[stilbestrol]", "values": [{"measurement": "growth hormone", "setting": "growth hormone [5]", "value": "increased growth hormone"}]}, {"compound": "endogenous human GRF: GRF naturally produced by humans; peptide of 43 or 44 amino acids (YADAIFTNSYRKVLGQLSARKLLQDIMSRQQGESNQERGARARL; ends and bridges not checked; UniProt P01286 32-75, looked up)", "values": [{"measurement": "GRF activity across species", "setting": "growth hormone [6]", "value": "active"}]}, {"compound": "hGRF40 acid: human GRF analog having 40 amino acids and a free acid terminal (YADAIFTNSYRKVLGQLSARKLLQDIMSRQQGESNQERGA-OH; UniProt P01286 32-71, looked up, fragment)", "values": [{"measurement": "GRF activity across species", "setting": "growth hormone [6]", "value": "active"}]}]}
